Key:
[1] = molecular target: EGFR^L858R/T790M/C^797S (Homo sapiens, UniProt P00533, C797S/L858R/T790M); experiment: in vitro kinase assay (HTRF KinEASE-TK kit), LTC; type: biochemical; settings: kinase inhibition
From the text: (§1) Assays using an in vitro kinase assay kit (HTRF KinEASE-TK kit) can be used to study the inhibitory activity of compounds described herein with respect to EGFR mutants such as EGFR^L858R, EGFR^L58R/T790M, and EGFR^L858R/T790M/C^797S.

[2] = molecular target: EGFR^L58R/T790M (Homo sapiens, UniProt P00533, L858R/T790M); experiment: in vitro kinase assay (HTRF KinEASE-TK kit), LT; type: biochemical; settings: kinase inhibition
Sequence of EGFR^L58R/T790M (P00533 25-1210 T790M/L858R): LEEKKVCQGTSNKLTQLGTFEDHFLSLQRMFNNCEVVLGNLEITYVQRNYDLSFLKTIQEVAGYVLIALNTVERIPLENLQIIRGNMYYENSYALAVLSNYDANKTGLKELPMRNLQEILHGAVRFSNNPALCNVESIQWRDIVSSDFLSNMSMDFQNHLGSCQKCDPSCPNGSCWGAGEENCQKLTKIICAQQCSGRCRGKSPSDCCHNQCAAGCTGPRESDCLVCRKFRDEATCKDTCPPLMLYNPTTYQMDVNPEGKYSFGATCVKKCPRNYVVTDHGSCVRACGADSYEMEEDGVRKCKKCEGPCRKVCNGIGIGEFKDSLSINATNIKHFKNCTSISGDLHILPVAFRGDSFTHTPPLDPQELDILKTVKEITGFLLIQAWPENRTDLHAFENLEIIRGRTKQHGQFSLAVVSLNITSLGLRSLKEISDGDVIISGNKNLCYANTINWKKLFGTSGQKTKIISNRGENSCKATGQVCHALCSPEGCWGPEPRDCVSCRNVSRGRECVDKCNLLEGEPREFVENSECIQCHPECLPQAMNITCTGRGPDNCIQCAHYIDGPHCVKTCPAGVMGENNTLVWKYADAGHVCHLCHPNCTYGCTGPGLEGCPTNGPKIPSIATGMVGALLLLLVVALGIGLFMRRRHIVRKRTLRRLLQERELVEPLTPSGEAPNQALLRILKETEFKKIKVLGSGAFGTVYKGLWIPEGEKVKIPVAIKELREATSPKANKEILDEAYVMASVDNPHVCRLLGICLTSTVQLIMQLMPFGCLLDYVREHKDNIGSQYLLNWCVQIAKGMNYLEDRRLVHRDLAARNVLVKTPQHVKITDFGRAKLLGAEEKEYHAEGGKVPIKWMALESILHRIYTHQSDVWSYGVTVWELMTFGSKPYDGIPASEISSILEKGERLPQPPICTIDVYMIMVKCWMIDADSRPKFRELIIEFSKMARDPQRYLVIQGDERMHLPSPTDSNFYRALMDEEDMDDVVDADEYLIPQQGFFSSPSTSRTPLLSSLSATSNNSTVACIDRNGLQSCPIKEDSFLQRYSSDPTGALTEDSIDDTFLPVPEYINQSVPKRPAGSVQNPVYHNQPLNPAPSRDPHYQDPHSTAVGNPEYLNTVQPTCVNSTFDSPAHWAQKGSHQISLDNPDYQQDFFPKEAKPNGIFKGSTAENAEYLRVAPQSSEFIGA
From the text: as §1

[3] = molecular target: EGFR^L858R (Homo sapiens, UniProt P00533, L858R); experiment: in vitro kinase assay (HTRF KinEASE-TK kit), L; type: biochemical; settings: kinase inhibition
Sequence of EGFR^L858R (P00533 25-1210 L858R): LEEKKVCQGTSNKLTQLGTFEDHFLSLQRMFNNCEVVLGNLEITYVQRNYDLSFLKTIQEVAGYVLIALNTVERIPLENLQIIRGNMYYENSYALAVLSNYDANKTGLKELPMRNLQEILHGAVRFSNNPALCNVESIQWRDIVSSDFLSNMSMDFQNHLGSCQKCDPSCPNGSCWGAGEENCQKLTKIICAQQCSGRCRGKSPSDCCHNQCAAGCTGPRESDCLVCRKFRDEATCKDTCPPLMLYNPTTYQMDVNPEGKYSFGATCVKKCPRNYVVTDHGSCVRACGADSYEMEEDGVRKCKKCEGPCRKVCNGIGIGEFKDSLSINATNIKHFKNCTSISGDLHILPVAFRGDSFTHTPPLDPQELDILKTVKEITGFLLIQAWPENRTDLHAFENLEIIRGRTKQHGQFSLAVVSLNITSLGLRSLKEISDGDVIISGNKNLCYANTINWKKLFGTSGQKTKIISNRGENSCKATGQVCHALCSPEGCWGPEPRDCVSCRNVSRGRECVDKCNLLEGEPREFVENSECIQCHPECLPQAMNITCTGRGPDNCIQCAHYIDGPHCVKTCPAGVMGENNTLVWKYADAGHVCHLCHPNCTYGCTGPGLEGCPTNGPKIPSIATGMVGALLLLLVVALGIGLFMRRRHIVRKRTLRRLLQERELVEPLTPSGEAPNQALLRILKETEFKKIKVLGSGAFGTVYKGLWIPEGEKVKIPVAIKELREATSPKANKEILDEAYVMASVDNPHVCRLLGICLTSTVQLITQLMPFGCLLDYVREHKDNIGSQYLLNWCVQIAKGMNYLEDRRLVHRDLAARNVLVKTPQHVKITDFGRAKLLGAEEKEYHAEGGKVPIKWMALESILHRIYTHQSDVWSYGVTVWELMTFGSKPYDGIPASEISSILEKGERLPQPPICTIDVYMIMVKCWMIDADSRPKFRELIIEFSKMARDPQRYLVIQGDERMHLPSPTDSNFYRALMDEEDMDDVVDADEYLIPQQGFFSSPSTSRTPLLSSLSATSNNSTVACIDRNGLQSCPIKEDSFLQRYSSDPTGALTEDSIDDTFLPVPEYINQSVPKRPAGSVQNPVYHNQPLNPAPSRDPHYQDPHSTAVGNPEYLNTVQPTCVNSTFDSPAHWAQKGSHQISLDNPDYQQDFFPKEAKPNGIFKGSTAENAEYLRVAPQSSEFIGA
From the text: as §1

[4] = molecular target: Ba/F3 EGFR-Del19/T790M/C797S (Homo sapiens, UniProt P00533, T790M/C797S, cells depend on it, form not given); experiment: Ba/F3 viability assay (CellTiter-Glo), DTC; type: cell-based; settings: anti-proliferation, read-out: BaF3 DTC IC50
From the text: (§2) Inhibition of cell proliferation can be studied using Ba/F3 viability assays, including the Promega CellTiter-Glo cell viability assay. This assay can be used to study the effect of compounds described herein in the following assays: (1) Ba/F3 Parental; (2) Ba/F3 EGFR-Del19/T790M; (3); Ba/F3 EGFR-Del19/C797S; and (4) Ba/F3 EGFR-Del19/T790M/C797S.

[5] = molecular target: Ba/F3 EGFR-Del19/T790M (Homo sapiens, UniProt P00533, T790M, cells depend on it, form not given); experiment: Ba/F3 viability assay (CellTiter-Glo), DT; type: cell-based; settings: anti-proliferation, read-out: BaF3 DT IC50
Sequence of Ba/F3 EGFR-Del19/T790M (P00533 with tags, fused parts or gaps DEL746-750/T790M, form open): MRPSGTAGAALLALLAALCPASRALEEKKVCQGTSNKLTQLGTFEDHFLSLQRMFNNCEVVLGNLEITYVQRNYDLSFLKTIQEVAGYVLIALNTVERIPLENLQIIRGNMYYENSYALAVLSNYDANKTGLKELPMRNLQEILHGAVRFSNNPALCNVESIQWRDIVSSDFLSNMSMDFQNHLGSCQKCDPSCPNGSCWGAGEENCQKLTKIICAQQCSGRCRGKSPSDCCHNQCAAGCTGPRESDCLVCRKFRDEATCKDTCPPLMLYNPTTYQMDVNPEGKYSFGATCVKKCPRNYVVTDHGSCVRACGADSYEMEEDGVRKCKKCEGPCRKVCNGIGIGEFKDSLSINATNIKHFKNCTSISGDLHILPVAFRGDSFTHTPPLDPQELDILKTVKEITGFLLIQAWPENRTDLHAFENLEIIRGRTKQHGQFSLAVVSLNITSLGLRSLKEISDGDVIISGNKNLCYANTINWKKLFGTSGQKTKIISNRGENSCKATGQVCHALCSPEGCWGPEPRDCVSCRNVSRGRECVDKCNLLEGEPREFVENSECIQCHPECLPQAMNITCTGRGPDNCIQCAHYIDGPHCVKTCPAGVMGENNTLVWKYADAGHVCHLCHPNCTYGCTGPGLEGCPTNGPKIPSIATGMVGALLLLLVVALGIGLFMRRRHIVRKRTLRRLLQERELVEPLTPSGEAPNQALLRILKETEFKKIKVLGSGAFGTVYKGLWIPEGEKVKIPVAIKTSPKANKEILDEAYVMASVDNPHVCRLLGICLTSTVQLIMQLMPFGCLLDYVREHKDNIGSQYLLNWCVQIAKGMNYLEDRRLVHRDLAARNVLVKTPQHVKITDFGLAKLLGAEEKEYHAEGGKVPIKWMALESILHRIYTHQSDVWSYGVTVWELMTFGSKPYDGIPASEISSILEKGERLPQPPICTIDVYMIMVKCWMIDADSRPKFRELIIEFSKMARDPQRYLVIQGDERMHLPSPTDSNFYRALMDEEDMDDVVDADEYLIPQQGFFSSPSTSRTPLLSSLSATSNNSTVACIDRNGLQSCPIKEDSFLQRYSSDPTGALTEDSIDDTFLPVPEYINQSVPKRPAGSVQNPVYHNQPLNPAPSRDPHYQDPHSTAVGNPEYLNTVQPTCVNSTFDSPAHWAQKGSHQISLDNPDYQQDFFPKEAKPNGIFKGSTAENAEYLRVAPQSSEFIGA
From the text: as §2

[6] = molecular target: Ba/F3 EGFR-Del19/C797S (Homo sapiens, UniProt P00533, C797S, cells depend on it, form not given); experiment: Ba/F3 viability assay (CellTiter-Glo), DC; type: cell-based; settings: anti-proliferation, read-out: BaF3 DC IC50
From the text: as §2

[7] = system: Ba/F3 Parental; experiment: Ba/F3 viability assay (CellTiter-Glo), parental; type: cell-based; settings: Mus musculus, BaF3, anti-proliferation
From the text: as §2

Sequence of EGFR^L858R/T790M/C^797S (P00533 25-1210 T790M/C797S/L858R): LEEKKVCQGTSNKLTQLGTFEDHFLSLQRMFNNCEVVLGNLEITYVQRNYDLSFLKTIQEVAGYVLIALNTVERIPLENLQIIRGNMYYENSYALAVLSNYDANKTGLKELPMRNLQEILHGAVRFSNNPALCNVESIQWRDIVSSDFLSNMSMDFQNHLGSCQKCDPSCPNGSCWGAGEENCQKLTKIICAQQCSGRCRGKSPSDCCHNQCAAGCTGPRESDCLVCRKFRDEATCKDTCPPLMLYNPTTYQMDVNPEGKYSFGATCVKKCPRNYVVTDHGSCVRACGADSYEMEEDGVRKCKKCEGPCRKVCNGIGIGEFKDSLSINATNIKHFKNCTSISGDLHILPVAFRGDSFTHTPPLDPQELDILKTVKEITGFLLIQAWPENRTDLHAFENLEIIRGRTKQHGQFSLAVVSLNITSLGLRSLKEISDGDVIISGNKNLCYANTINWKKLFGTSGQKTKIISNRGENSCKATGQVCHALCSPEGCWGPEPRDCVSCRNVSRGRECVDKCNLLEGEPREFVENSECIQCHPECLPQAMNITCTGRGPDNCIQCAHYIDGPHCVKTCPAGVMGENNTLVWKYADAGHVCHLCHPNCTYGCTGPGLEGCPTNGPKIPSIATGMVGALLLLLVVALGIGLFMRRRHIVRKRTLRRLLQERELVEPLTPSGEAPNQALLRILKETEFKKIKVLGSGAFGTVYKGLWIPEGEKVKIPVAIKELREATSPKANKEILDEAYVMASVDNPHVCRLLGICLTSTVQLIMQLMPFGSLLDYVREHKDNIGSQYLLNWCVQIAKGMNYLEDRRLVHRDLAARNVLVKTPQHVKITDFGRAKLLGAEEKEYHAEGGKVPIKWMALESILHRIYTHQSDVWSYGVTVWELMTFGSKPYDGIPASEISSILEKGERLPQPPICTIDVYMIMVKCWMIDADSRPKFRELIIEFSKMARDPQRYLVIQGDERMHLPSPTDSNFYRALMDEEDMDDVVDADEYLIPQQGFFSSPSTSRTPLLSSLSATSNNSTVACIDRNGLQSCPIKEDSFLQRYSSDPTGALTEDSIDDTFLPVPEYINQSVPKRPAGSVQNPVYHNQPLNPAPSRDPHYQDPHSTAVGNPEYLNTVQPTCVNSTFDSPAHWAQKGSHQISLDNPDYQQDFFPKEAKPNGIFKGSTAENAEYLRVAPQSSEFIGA

| SMILES | IC50 [1] [µM] | IC50 [2] [µM] | IC50 [3] [µM] | GI50 [4] [µM] | GI50 [5] [µM] | GI50 [6] [µM] | IC50 [7] [µM] |
| --- | --- | --- | --- | --- | --- | --- | --- |
| C[C@H]1CCOc2c(cnn2C)-c2nccc(n2)Nc2cc3c(cn2)c(N2CCN(C4CC4)CC2)nn31 [(97)] | 0.01 to 0.1 | < 0.01 | 0.1 to 1 | 0.1 to 1 | 0.1 to 1 | 0.1 to 1 | ≥ 1 |
| C[C@H]1CCOc2c(cnn2C)-c2nccc(n2)Nc2cc3c(cn2)c(-c2cccc(CN4CCN(C)CC4)c2)nn31 [(98)] | < 0.01 | < 0.01 | < 0.01 | 0.01 to 0.1 | 0.01 to 0.1 | 0.01 to 0.1 | 0.1 to 1 |
| C[C@H]1CCOc2c(cnn2C)-c2nccc(n2)Nc2cc3c(cn2)c(-c2ccncc2)nn31 [(100)] | < 0.01 | < 0.01 | 0.01 to 0.1 | 0.01 to 0.1 | 0.01 to 0.1 | 0.01 to 0.1 | 0.1 to 1 |
| C[C@H]1CCOc2c(cnn2C)-c2nccc(n2)Nc2cc3c(cn2)c(-c2ccc(CN4CCN(C)CC4)n2C)nn31 [(101), (16S)-11,16-dimethyl-19-[1-methyl-5-[(4-methylpiperazin-1-yl)methyl]pyrrol-2-yl]-13-oxa-2,6,10,11,17,18,22,25-octazapentacyclo[15.5.2.13,7.08,12.020,24]pentacosa-1(22),3,5,7(25),8(12),9,18,20,23-nonaene] | < 0.01 | < 0.01 | < 0.01 | < 0.01 | < 0.01 | < 0.01 | 0.1 to 1 |
| C[C@H]1CCOc2c(cnn2C)-c2nccc(n2)Nc2cc3c(cn2)c(-c2cnn(CCN(C)C)c2)nn31 [(102)] | < 0.01 | < 0.01 | < 0.01 | 0.01 to 0.1 | 0.01 to 0.1 | 0.01 to 0.1 | 0.1 to 1 |
| C[C@H]1CCOc2c(cnn2C)-c2nccc(n2)Nc2cc3c(cn2)c(-c2csc(CN4CCN(C)CC4)n2)nn31 [(103)] | < 0.01 | < 0.01 | < 0.01 | < 0.01 | < 0.01 | 0.01 to 0.1 | 0.1 to 1 |
| C[C@H]1CCOc2c(cnn2C)-c2nccc(n2)Nc2cc3c(cn2)c(N2CCOCC2)nn31 [(104)] | < 0.01 | < 0.01 | 0.01 to 0.1 | 0.01 to 0.1 | 0.01 to 0.1 | 0.01 to 0.1 | 0.1 to 1 |
| C[C@H]1CCOc2c(cnn2C)-c2nccc(n2)Nc2cc3c(cn2)c(-c2cc(CN4CCOCC4)n(C)n2)nn31 [(105)] | < 0.01 | < 0.01 | < 0.01 | < 0.01 | < 0.01 | 0.01 to 0.1 | ≥ 1 |
| C[C@H]1CCOc2c(cnn2C)-c2nccc(n2)Nc2cc3c(cn2)c(-c2cnc(CN4CCN(C)CC4)s2)nn31 [(106)] | < 0.01 | < 0.01 | < 0.01 | 0.01 to 0.1 | 0.01 to 0.1 | < 0.01 | 0.1 to 1 |
| C[C@H]1CCOc2c(cnn2C)-c2nccc(n2)Nc2cc3c(cn2)c(-c2ncc(CN4CCN(C)CC4)s2)nn31 [(107), (16S)-11,16-dimethyl-19-[5-[(4-methylpiperazin-1-yl)methyl]thiazol-2-yl]-13-oxa-2,6,10,11,17,18,22,25-octazapentacyclo[15.5.2.13,7.08,12.020,24]pentacosa-1(22),3,5,7(25),8(12),9,18,20,23-nonaene] | < 0.01 | < 0.01 | < 0.01 | < 0.01 | < 0.01 | < 0.01 | 0.1 to 1 |
| C[C@H]1CCOc2c(cnn2C)-c2nccc(n2)Nc2cc3c(cn2)c(-c2cccc(N4CCC(N(C)C)CC4)c2)nn31 [(108)] | < 0.01 | < 0.01 | < 0.01 | < 0.01 | 0.01 to 0.1 | 0.01 to 0.1 | 0.1 to 1 |
| C[C@H]1CCOc2c(cnn2C)-c2nccc(n2)Nc2cc3c(cn2)c(-c2ccn(C)c2)nn31 [(109)] | < 0.01 | < 0.01 | < 0.01 | < 0.01 | < 0.01 | < 0.01 | 0.1 to 1 |
| C[C@H]1CCOc2c(cnn2C)-c2nccc(n2)Nc2cc3c(cn2)c(-c2cccc(OCCN(C)C)c2)nn31 [(110)] | < 0.01 | < 0.01 | < 0.01 | < 0.01 | < 0.01 | < 0.01 | 0.1 to 1 |
| C[C@H]1CCOc2c(cnn2C)-c2nccc(n2)Nc2cc3c(cn2)c(-c2cccc(N4CCC(O)CC4)c2)nn31 [(111)] | < 0.01 | < 0.01 | < 0.01 | < 0.01 | < 0.01 | 0.01 to 0.1 | 0.1 to 1 |
| C[C@H]1CCOc2c(cnn2C)-c2nccc(n2)Nc2cc3c(cn2)c(N2CC[C@@H](O)C2)nn31 [(112)] | < 0.01 | < 0.01 | < 0.01 | < 0.01 | < 0.01 | 0.01 to 0.1 | 0.1 to 1 |
| C[C@H]1CCOc2c(cnn2C)-c2nccc(n2)Nc2cc3c(cn2)c(N2CC[C@H](O)C2)nn31 [(113)] | < 0.01 | < 0.01 | < 0.01 | < 0.01 | < 0.01 | < 0.01 | 0.1 to 1 |
| C[C@H]1CCOc2c(cnn2C)-c2nccc(n2)Nc2cc3c(cn2)c(-c2cn(C)cn2)nn31 [(114)] | < 0.01 | < 0.01 | 0.01 to 0.1 | 0.01 to 0.1 | 0.01 to 0.1 | 0.01 to 0.1 | 0.1 to 1 |
| C[C@H]1CCOc2c(cnn2C)-c2nccc(n2)Nc2cc3c(cn2)c(-c2cnn(CCCN4CCOCC4)c2)nn31 [(115)] | < 0.01 | < 0.01 | 0.01 to 0.1 | 0.01 to 0.1 | 0.01 to 0.1 | 0.01 to 0.1 | 0.1 to 1 |
| C[C@H]1CCOc2c(cnn2C)-c2nccc(n2)Nc2cc3c(cn2)c(-c2cnn(CCN4CCOCC4)c2)nn31 [(116)] | < 0.01 | < 0.01 | 0.01 to 0.1 | 0.01 to 0.1 | 0.01 to 0.1 | 0.01 to 0.1 | 0.1 to 1 |
| CCN(CC)CCn1cc(-c2nn3c4cc(ncc24)Nc2ccnc(n2)-c2cnn(C)c2OCC[C@@H]3C)cn1 [(117)] | < 0.01 | < 0.01 | < 0.01 | < 0.01 | < 0.01 | 0.01 to 0.1 | 0.01 to 0.1 |
| CC(C)N1CCN(Cc2csc(-c3nn4c5cc(ncc35)Nc3ccnc(n3)-c3cnn(C)c3OCC[C@@H]4C)n2)CC1 [(118)] | < 0.01 | < 0.01 | 0.01 to 0.1 | 0.01 to 0.1 | 0.1 to 1 | 0.1 to 1 | ≥ 1 |

Source: patent US20230148005A1, “MACROCYCLIC COMPOUNDS AND USES THEREOF” (THESEUS PHARMACEUTICALS, INC., priority 2020, published 2023)
